Assay results published in article PMC9767416, “Discovery of small molecule mechanistic target of rapamycin inhibitors as anti-aging and anti-cancer therapeutics” (Frontiers in Aging Neuroscience, 2022).
In brackets after ≈: the same amount, converted by molar mass. Like-named read-outs stand apart in the source and are kept apart here. Marks after values point to notes of the source that are not given here.

What was measured:
[1] = Dissociation constants by spectrophotometric titration; format: physicochemical; settings: 20°C; for pKa: ultrapure water
Method: The spectrophotometric titration was used for dissociation constants’ determination, utilizing spectrophotometer Agilent Cary-60 (Agilent Technologies, CA, USA), pH meter WTW InoLab_IDS Multi 9430 (WTW, Czech Republic), and pH electrode SenTix® Mic (WTW, Czech Republic). Data were analyzed by GraphPadPrism 8.0 software (GraphPad Software, CA, USA). The analyzed samples were prepared by adding 20 μL of compound stock solution (2 mg/mL) and 20 μL of 0.1 M hydrochloric acid into the cuvette with ultrapure water (total volume 3.5 mL). The samples were titrated by 0.1 M sodium hydroxide at 20°C while acquiring absorption spectra (190–500 nm) at different pH values. Absorbance at the chosen wavelength was plotted as a function of pH. The inflection point in the given plot was used for pKa value determination.

[2] = Shake-flask partition coefficient logP and distribution coefficient logD (pH 7.4); format: physicochemical; settings: for logD: n-octanol/sodium phosphate buffer pH 7.4; for logP: n-octanol/water
Method: Before the initiation of the intended experiments, all solvents were mutually saturated at 21°C. […] For saturation, large stock bottles containing n-octanol and 12% of water/buffer or water/buffer and 12% of n-octanol were shaken for 30 mins on a mechanical shaker and subsequently left to stand on the bench overnight until the phases separated. Approximately 0.50 mg of tested substance was added to the test vessels alongside with 1:1 volume ratio of saturated solvents (250 μL). The test vessels were shaken on the mechanical shaker (Multi Reax, Heidolph Instruments, Schwabach, Germany) for 30 min at the highest speed and then centrifuged for phase separation (16.873 × g for 5 min; Eppendorf 5418 Microcentrifuge, Prague, Czech Republic). Both organic and aqueous phases were sampled for LC-MS analysis. UHPLC-DAD-MS (UHPLC Infinity II 1290, detection by DAD and QqQ 6470; Agilent Technologies, CA, USA; separation on Arion C18 polar column 100 × 2.1 mm, 2.1 μm; Chromservis, Czech Republic) was used for determination of the exact concentration of tested substances. The total quantity of substance (in both phases) was used for logP/logD values calculation.

[3] = CNS MPO desirability score
Method: ACDLAbs PhysChem Suite 14.0 software (Advanced Chemistry Development, Inc., Toronto, ON, Canada) was used for the calculation of Mw, tPSA, and HBD values. The CNS MPO score calculation method was described by [Wager et al. (2016)].
Central nervous system multiparameter optimization desirability score was calculated as described by [Wager et al. (2016)], utilizing all collected experimental and calculated data. This scoring tool was set on ranges of desirable property space and linear transformational functions with values between 0 and 1 (defined as T0 for each property). Rating each parameter equally, the collective score ranges from 0 to 6, while a score higher than 4 is desirable ([Rankovic, 2015]).

[4] = Solubility by nephelometry (water, buffer pH 7.4); format: physicochemical; settings: for solubility at 30 s: medium not told apart (water and buffer pH 7.4)
Method: Compounds’ solubility was measured by the NEPHELOstar microplate instrument (BMG Labtech, Offenburg, Germany). Stock solutions were prepared by dissolving the tested compounds in ultrapure water or sodium phosphate buffer (pH 7.4) to obtain a concentration of 160 and 1,000 μg/mL. Each stock solution was sonicated at full power by Hielscher UP100H needle ultrasonic processor (Teltow, Germany) before loading into NEPHELOstar instrument injector A. Ultrapure water or sodium phosphate buffer was loaded into injector B. Compound was diluted in 48 wells in 0–160 or 0–1,000 μg/mL range and subsequently shook for 30 s. Each well was scanned with 80% laser power in matrix 3 × 3, beam width 2 mm, and obtained data were evaluated in GraphPad Prism 7.03 (GraphPad Software, San Diego, CA, USA) using segmental linear regression.

BJ, RPE-1 and U373 cells = test: Crystal violet and resazurin proliferation screen in proliferating cells; format: cell-based, human; settings: RPE-1, U373, 0, 10, 50, 80, 100 μM, 24 h
Method: All cell lines used in the study were obtained from the American Type Culture Collection (ATCC, Manassas, VA, USA). Human telomerase-immortalized retinal pigment epithelial cells RPE-1, glioblastoma U-87 MG, glioblastoma U373MG, glioblastoma T98G, glioblastoma A-172, breast adenocarcinoma MDA-MB-231, prostate carcinoma DU-145, and non-small cell lung cancer NCI-H1299 cell lines were cultured in Dulbecco’s modified Eagle’s medium (DMEM, Thermo Fisher Scientific, Waltham, MA, USA) with high glucose (4.5 g/L). Primary human skin BJ fibroblasts were cultured in Dulbecco’s modified Eagle’s medium (DMEM, Thermo Fisher Scientific, Waltham, MA, USA) with low glucose (1 g/L). Both cell culture media were supplemented with 10% fetal bovine serum (FBS, Gibco/Thermo Fisher Scientific) and non-essential amino acids (NEAA), 100 units/mL of penicillin, and 100 μg/mL of streptomycin (Sigma-Aldrich). Cells were kept at 37°C under a 5% CO2 atmosphere and 95% humidity.
(§1) Twenty-four hours before treatment, cells were plated in 96-well plates at densities of 2,850 cells per well for senescent RPE-1 (IR-RPE-1), 3,350 cells per well for proliferating RPE-1 and senescent BJ (DIS-BJ), and 5,000 cells per well for U373, T98, A172, U87, TMZ-U87, and proliferating BJ cells.
(§2) For the crystal violet assay, the cells were washed twice with 150 μL PBS and stained with 30 μL 0.5% (w/v) crystal violet in 20% methanol for 15 mins. Next, the plates were washed five times with ddH2O and left to dry overnight. Crystal violet was solubilized with 75 μL 0.2% Triton X-100 (Sigma) in PBS for 15 mins. The absorbance was read at 595 nm using a microplate reader (Envision, PerkinElmer, Waltham, MA, USA). The absorbance of crystal violet in treated cells was expressed as a percentage of absorbance in untreated cells. Each condition was measured at least in triplicate.
(§3) For the resazurin assay, 200 μL of the culture medium of each well was exchanged for 100 μL of resazurin (stock solution 30 mg/mL; Sigma, St. Louis, MO, USA) diluted 10 times in the culture medium, and the cells were incubated at 37°C for 1–3 h. Reading of fluorescence was done using a microplate reader (PerkinElmer, Waltham, MA, USA). Absolute values of fluorescence were related to the values of untreated cells. Each condition was measured at least in triplicate.

[5] = system: IR-induced senescent RPE-1 cells; test: Crystal violet and resazurin assays in IR-induced senescent RPE-1; format: cell-based, human; settings: γ-irradiated RPE-1; crystal violet readout only
Method: To obtain ionizing radiation (IR)-induced senescent cells, proliferating RPE-1 cells were exposed to a single dose of X-rays (20 Gy) using Pantak HF160 (Gulmay, Surrey, UK) X-ray instrument equipped with Pantak Seifert HF320 generator, MXR-161 X-ray tube (Comet AG, Flamatt, Switzerland), and an aluminum filter using current 1–10 mA. After irradiation, the cells were cultured for an additional 7 days until the development of the senescent phenotype ([Salovska et al., 2022]). To induce docetaxel-induced senescence (DIS), BJ cells were exposed to 5 nM docetaxel for 7 days, as described previously ([Sapega et al., 2018]). To prepare temozolomide (TMZ)-induced senescence, U87 cells were exposed to 100 μM TMZ for 14 days.
as §1, §2
as §3, with “triplicate. […]” for “triplicate.”

RPE-1 cells = test: Time-lapse microscopy (Incucyte) of proliferating RPE-1; format: cell-based, human; settings: higher concentrations 80–100 μM, 72 h
Method: (§4) For auto-monitoring of cells, Incucyte SX1 Live-Cell Analysis System (Sartorius, Göttingen, Germany), located in an incubator maintained at 37°C under a 5% CO2 atmosphere and 95% humidity, was utilized. The images (1,408 × 1,040 pixels at 1.24 microns/pixel) were acquired using a 10× objective lens in phase contrast, red fluorescence (excitation: 585 ± 20 nm, emission: 635 [625, 705] nm, acquisition time: 100 ms) channels every 60 min during 72 h. The first image was acquired 30 min after adding compounds. The images were processed to measure cell confluence using Incucyte software (version 2022A). Annexin V – Dy647, Apronex (diluted 1:1,000) was used for apoptotic cell staining.

U373 cells = test: Time-lapse microscopy (Incucyte) of U373; format: cell-based, human; settings: 100 μM, 72 h
Method: as §4

[6] = from experimental and calculated data, method of Wager et al. (2016), scale 0-6
[7] = aqueous buffer, sodium phosphate buffer pH 7.4, nephelometry, read-out: Sol. (buffer 7.4)
[8] = ultrapure water, nephelometry, read-out: Sol. (H2O)
[9] = n-octanol/sodium phosphate buffer, pH 7.4, shake-flask, read-out: logD
[10] = sodium phosphate buffer pH 7.4, nephelometry

SMILES	pKa ([1]; read-out: pKa1)	MPO (CNS MPO score) [3, 6]	solubility kinetic at 30 s [4, 7]	solubility kinetic at 30 s [4, 8]	logSH2O ([4]; water)	melting point	logSpH 7.4 ([4]; buffer pH 7.4)	solubility at 30 s [4]	logD [2, 9]	logP ([2]; shake-flask, read-out: logP)	effect on the readout of crystal violet and resazurin assays (BJ, RPE-1 and U373 cells)	further results
c1ccc2[nH]c(NC3CCNCC3)nc2c1 [Compound 1, N-(piperidine-4-yl)-1H-benzo[d]imidazol-2-amine]	6.18 ± 0.04	5.2	> 160 µg/mL	33.3 µg/mL (≈ 154 µM)	−3.81	227 to 229 °C	–	–	–	–	mild (although sometimes statistically significant) suppressive effect	logD ([2]; shake-flask): 0.85 ± 0.03; logP ([2]; shake-flask): 1.86 ± 0.07
Br.Br.c1ccc2[nH]c(NC3CCNCC3)nc2c1 [Compound 2, N-(piperidin-4-yl)-1H-benzo[d]imidazol-2-amine dihydrobromide]	–	4.9	299 µg/mL	> 1000 µg/mL	>−2.58	275 to 277 °C	−3.10	> 1000 µg/mL	–	–	mild (although sometimes statistically significant) suppressive effect	pKa1 [1]: 6.08 ± 0.08; logD ([2]; shake-flask): −0.89 ± 0.11; logP ([2]; shake-flask): −1.01 ± 0.01
NC(=O)[C@@H]1CC[C@H](C(=O)O)N1 [Compound 4]	3.17 ± 0.09	4.9	> 1000 µg/mL	> 1000 µg/mL	>−2.20	–	>−2.20	> 1000 µg/mL	-2.82 ± 0.22	-2.89 ± 0.16	mild (although sometimes statistically significant) suppressive effect	pKa ([1]; read-out: pKa2): 7.8 ± 0.11
COc1ccc(CN2CCNC2=N)cc1OC [Compound 5]	–	–	–	–	–	–	–	–	-1.78 ± 0.08	-1.79 ± 0.04	no effect	MPO (CNS MPO score) ([3]; experimental pKa unknown: calculated with T0(pKa) equal to zero): 4.5^a; logSH2O ([4]; 30 s): >−3.36; logSpH 7.4 ([4]; 30 s, pH 7.4): >−3.36; solubility kinetic at 30 s ([4]; pH 7.4, aqueous buffer): > 160 µg/mL; solubility kinetic at 30 s ([4]; water): > 160 µg/mL; selectivity for senescent versus proliferating cells [5]: mild but selective effect

More lines, main results first:

pKa ([1]; read-out: pKa1)	MPO (CNS MPO score) [3, 6]	solubility kinetic at 30 s [4, 7]	solubility kinetic at 30 s [4, 8]	logSH2O ([4]; water)	melting point	logSpH 7.4 ([4]; buffer pH 7.4)	solubility at 30 s [4]	logD [2, 9]	logP ([2]; shake-flask, read-out: logP)	SMILES	effect on the readout of crystal violet and resazurin assays (BJ, RPE-1 and U373 cells)	further results
4.8 ± 0.06	5	< 6 µg/mL	< 6 µg/mL	<−4.60	104 to 106 °C	<−4.60	–	2.91 ± 0.01	2.86 ± 0.01	CN(C)c1cccc(-c2cccc(C(N)=O)c2)c1 [Compound 6, 3’-(Dimethylamino)-[1,1’-biphenyl]-3-carboxamide]	mild (although sometimes statistically significant) suppressive effect	Sol. (buffer 7.4) [4, 10]: lower than 6 μg/mL; Sol. (H2O) ([4]; ultrapure water, nephelometry): lower than 6 μg/mL
–	–	> 1000 µg/mL	789 µg/mL (≈ 1780 µM)	−2.75	–	>−2.65	> 1000 µg/mL	1.52 ± 0.01	1.48 ± 0.03	O=C(O[C@@H]1Cc2c(O)cc(O)cc2O[C@@H]1c1ccc(O)c(O)c1)c1cc(O)c(O)c(O)c1 [Compound 7, epicatechin gallate]	mild (although sometimes statistically significant) suppressive effect	effect on cell proliferation (cell confluence, time-lapse) (RPE-1 cells): cytostatic effect; effect on cell proliferation (cell confluence, time-lapse) (U373 cells): cytostatic effect
10.7 ± 0.21	0.7	< 6 µg/mL	< 6 µg/mL	<−5.18	–	<−5.18	–	4.63 ± 0.04	3.97 ± 0.03	CO[C@H]1C[C@@H]2CC[C@@H](C)[C@@](O)(O2)C(=O)C(=O)N2CCCC[C@H]2C(=O)O[C@H]([C@H](C)C[C@@H]2CC[C@@H](O)[C@H](OC)C2)CC(=O)[C@H](C)/C=C(\C)[C@@H](O)[C@@H](OC)C(=O)[C@H](C)C[C@H](C)/C=C/C=C/C=C/1C [Rapamycin, rapamycin]	–	logSpH 7.4 ([4]; buffer pH 7.4, listed as rapamycin): < −4.60; Sol. (buffer 7.4) [4, 10]: lower than 6 μg/mL; Sol. (H2O) ([4]; ultrapure water, nephelometry): lower than 6 μg/mL; logSH2O ([4]; water, listed as rapamycin): < −4.60
